Each block holds one compound with its values, some of them ahead of it.
Key:
[1] = test system: human glioma cell line U87 (wild type p53); assay: MTS cell viability assay, U87 cells; format: cell-based; details: three-day treatment, read-out: IC50 of growth inhibition
[2] = target: T1, ^synMDMX (^24-108MDMX, p53-binding domain of MDMX) (Homo sapiens, UniProt O15151); assay: competition SPR binding to synMDMX
T1 construct: MDMX (^24-108MDMX or syn MDMX); made in house; host or cells: chemical synthesis (inferred from the prefix 'syn'; no expression host named)
T1 sequence (O15151 24-108): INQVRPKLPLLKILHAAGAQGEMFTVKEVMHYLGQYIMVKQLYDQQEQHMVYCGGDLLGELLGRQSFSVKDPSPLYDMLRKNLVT

[3] = test system: normal cells; details: cited from earlier work

IC50 [1]: 3.8 µM
Compound: COc1ccc(C2=N[C@@H](c3ccc(Cl)cc3)[C@@H](c3ccc(Cl)cc3)N2C(=O)N2CCNC(=O)C2)c(OC(C)C)c1 [Nutlin-3]

Kd [2]: 4.9 µM
Compound: CC(C)C[C@@H](NC(=O)[C@H]1CCCN1C(=O)[C@@H](Cc1c[nH]c2ccccc12)NC(=O)[C@@H](Cc1c[nH]c2ccccc12)NC(=O)[C@H](N)CC(=O)O)C(=O)N[C@H](C)C(=O)N[C@H](Cc1ccccc1)C(=O)N[C@H](CCC(=O)O)C(=O)N[C@H](C)C(=O)N[C@H](CC(C)C)C(=O)N[C@H](CC(C)C)C(=O)N[C@H](CCCNC(=N)N)C(=O)O [^DPMI-γ]

Compound: MI-219
activation of the p53 pathway (accumulation of p53, increased MDM2 and p21) [3]: transient activation of the p53 pathway
expression of PUMA and apoptosis [3]: fails to induce the expression of PUMA and apoptosis
